# According to patent US9078899B2, “Pyrazolyl-based carboxamides II” (Grünenthal GmbH, priority 2013, dated 2015):
# Key:
# CRAC channel = target: T1, CRAC channel (Homo sapiens, UniProt Q96D31); experiment: HEK Calcium Influx Assay (FLIPR); assay type: cell-based; conditions: 10 μM; endogenous SOC in HEK293 cells, thapsigargin store depletion, Ca2+ signal 9.5-10 min post-administration; read-out: % inhib.[@ 10 μM] FLIPR
# T1 construct: host or cells: HEK293
# Procedure: The effect of compounds of the invention on intracellular [Ca^2+] was tested in the HEK293 cell line (ECACC).
# HEK293 cells were cultured in DMEM/F12/Glutamax (Gibco) containing 10% FCS (Gibco), and maintained at 37° C., 5% CO2. Cell were split twice a week [3*10^6 (Mon-Thu) and 1*10^6 (Thu-Mon) cells/50 ml medium in T-175 ZK culture flasks, respectively]. Twenty four hours pre-experiment, cells were seeded on 96 well plates (Poly-D-Lysine 96well Black/Clear Plate, BD Biocoat REF 356640) at a density of 40,000 cells/well in DMEM/F12 (Gibco) containing 10% FCS (Gibco), and maintained at 37° C., 5% CO2.
# Prior to store-depletion, cell culture medium was removed and cells were loaded with the a Calcium-sensitive fluorescent dye comprised within the Calcium-4-assay kit (Molecular Devices) in nominally Ca^2+-free HBS buffer (140 mM NaCl, 4 mM KCl, 0.2 mM MgCl2, 11 mM D-glucose, and 10 mM HEPES, pH 7.4) according to manufacturer's instruction for 60 min at 37° C., 5% CO2.
# Passive depletion of intracellular Ca^2+-stores was then triggered by employing the SERCA inhibitor thapsigargin (2 μM final) for 10 min in the dark (RT). To prevent immediate Ca^2+-entry via the activated Store-operated channels (SOCs), cells were maintained in Ca^2+-free HBS buffer comprising 100 μM EGTA during store-depletion.
# Intracellular changes in [Ca^2+] were subsequently monitored with the FLIPR device (Molecular Devices). In brief, baseline imaging post-store depletion was allowed for 1 min before adjusting the extracellular buffer to 3 mM CaCl2. Increases in intracellular [Ca^2+] due to pre-activated SOC channels were monitored for 15 min until intracellular Ca^2+ levels had declined into a steady-state. Finally, compounds were administered and Ca^2+ signals were recorded for additional 10 min.
# Inhibition of endogenous SOC in HEK293 cells was quantified employing the average Ca^2+ signal measured from 9.5-10 min post-administration. Zero percent inhibition (MAX) was defined as the Ca^2+ signal recorded from wells to which DMSO-only had been added instead of compound. Hundred percent inhibition (MIN) was defined as the signal obtained from wells in which cells haven't been treated with TG prior to Ca^2+ addition and to which DMSO-only had been added instead of compound. For routine IC50 determinations of compounds, 8 concentrations of a serial dilution (1:3.16) were tested, starting off from 10 μM. Reliable IC50's could consequently be determined only, if they were at least sub 2.5-3 μM.
# [1] = tested on: Interleukin-2 (IL-2) production/release; experiment: Jurkat IL-2 Production Assay; assay type: cell-based; conditions: Homo sapiens; Jurkat T cells clone E6-1, 15 μg/ml PHA for 22 hours, IL-2 in supernatant
# Procedure: Jurkat IL-2 Production Assay
# The effect of compounds of the invention on Interleukin-2 (IL-2) production/release was tested in the Jurkat T cell line (ECACC) clone E6-1.
# Jurkat T cells were cultured in DMEM/F12/Glutamax (Gibco) containing 10% FCS (Gibco), and maintained at 37° C., 5% CO2. Cell were split twice a week [5*10^6 (Mon-Thu) and 1*10^7 (Thu-Mon) cells/50 ml medium in T-175 ZK culture flasks, respectively].
# Prior to experiment, cells were seeded on 96 well plates (Cellstar 96 Well; Cat No. 655180, Greiner bio-one) at a density of 5*10^5 cells/well in DMEM/F12/Glutamax (Gibco) containing 10% FCS (Gibco), and incubated for 60 min at 37° C., 5% CO2. Subsequently, compounds were added and cells were allowed to incubate for 30 min at 37° C., 5% CO2. Cells were then stimulated with 15 μg/ml Phytohemagglutinin (PHA; Sigma) for 22 hours at 37° C., 5% CO2.
# Before sampling of the supernatants, cells were spun down (200*g/5 min/RT). The amount of IL-2 released into the supernatant was quantified with the human IL-2 AlphaLisa kit (Perkin Elmer) according to manufacturer's instructions. Luminescence proximity measurements were carried out in the Synergy H4 reader (BioTek) employing the fluorescence setting of the reader (ex: 680/30 nm; em: 620/40 nm).
# Inhibition of IL-Production/Release in/from Jurkat T Cells was Quantified as Follows:
# Zero percent inhibition (MAX) was defined as the [IL-2] determined in supernatants derived from cells to which PHA & DMSO-only had been added instead of compound. Hundred percent inhibition (MIN) was defined as the [IL-2] determined in supernatants derived from cells that had been pre-treated with 1 μM CyclosporineA (Sigma) before the addition of 15 μg/ml PHA.
# For routine IC50 determinations of compounds, 8 concentrations of a serial dilution (1:3.16) were tested, starting off from 10 μM.
# T1 sequence (Q96D31 whole entry): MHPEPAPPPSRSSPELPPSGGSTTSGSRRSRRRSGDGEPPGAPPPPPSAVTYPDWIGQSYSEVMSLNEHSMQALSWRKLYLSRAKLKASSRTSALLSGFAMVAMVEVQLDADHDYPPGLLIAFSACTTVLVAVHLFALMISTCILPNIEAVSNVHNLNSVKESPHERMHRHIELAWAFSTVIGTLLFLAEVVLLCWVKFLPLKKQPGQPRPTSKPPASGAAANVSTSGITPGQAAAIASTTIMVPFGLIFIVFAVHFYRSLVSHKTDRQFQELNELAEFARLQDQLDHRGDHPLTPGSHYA
inhibition at 10 µM (CRAC channel),IC50 [1],SMILES
> 70%,1 to 5 µM,"Cn1nc(C(=O)Nc2c(F)cncc2F)cc1-c1c(F)cccc1C(F)(F)F [Example 49, N-(3,5-Difluoro-pyridin-4-yl)-5-[2-fluoro-6-(trifluoromethyl)-phenyl]-1-methyl-1H-pyrazole-3-carboxylic acid amide]"
> 70%,1 to 5 µM,"Cn1nc(C(=O)Nc2ccncc2F)cc1-c1cc(OC(F)(F)F)ccc1C1CC1 [Example 47, 5-[2-Cyclopropyl-5-(trifluoromethyloxy)-phenyl]-N-(3-fluoro-pyridin-4-yl)-1-methyl-1H-pyrazole-3-carboxylic acid amide]"
50 to 70%,1 to 5 µM,"Cn1nc(C(=O)Nc2c(F)cccc2F)cc1-c1c(F)cccc1C(F)(F)F [Example 51, N-(2,6-Difluoro-phenyl)-5-[2-fluoro-6-(trifluoromethyl)-phenyl]-1-methyl-1H-pyrazole-3-carboxylic acid amide]"
< 50%,1 to 5 µM,"COc1ccc(OC)c(-c2cc(C(=O)Nc3ncncc3C)nn2C)c1 [Example 18, 5-(2,5-Dimethoxyphenyl)-1-methyl-N-(5-methyl-pyrimidin-4-yl)-1H-pyrazole-3-carboxylic acid amide]"
> 70%,0.5 to 1 µM,"Cn1nc(C(=O)Nc2c(F)cccc2F)cc1-c1cc(OC(F)(F)F)ccc1C1CC1 [Example 45, 5-[2-Cyclopropyl-5-(trifluoromethyloxy)-phenyl]-N-(2,6-difluoro-phenyl)-1-methyl-1H-pyrazole-3-carboxylic acid amide]"
< 50%,1 to 5 µM,"COc1ccc(OC)c(-c2c(CO)c(C(=O)Nc3c(F)cccc3F)nn2C)c1 [Example 43, N-(2,6-Difluoro-phenyl)-5-(2,5-dimethoxyphenyl)-4-(hydroxymethyl)-1-methyl-1H-pyrazole-3-carboxylic acid amide]"
> 70%,1 to 5 µM,"COc1ccc(OC(F)(F)F)c(-c2cc(C(=O)Nc3ccncc3F)nn2C)c1 [Example 9, N-(3-Fluoro-pyridin-4-yl)-5-[5-methoxy-2-(trifluoromethyloxy)-phenyl]-1-methyl-1H-pyrazole-3-carboxylic acid amide]"
> 70%,1 to 5 µM,"COc1ccc(OC)c(-c2cc(C(=O)Nc3cnccc3C)nn2C)c1 [Example 16, 5-(2,5-Dimethoxyphenyl)-1-methyl-N-(4-methyl-pyridin-3-yl)-1H-pyrazole-3-carboxylic acid amide]"
> 70%,< 0.5 µM,"Cn1nc(C(=O)Nc2c(F)cncc2F)cc1-c1cc(OC(F)(F)F)ccc1C1CC1 [Example 46, 5-[2-Cyclopropyl-5-(trifluoromethyloxy)-phenyl]-N-(3,5-difluoro-pyridin-4-yl)-1-methyl-1H-pyrazole-3-carboxylic acid amide]"
> 70%,0.5 to 1 µM,"COc1ccc(OC)c(-c2cc(C(=O)Nc3ccncc3C)nn2C)c1 [Example 20, 5-(2,5-Dimethoxyphenyl)-1-methyl-N-(3-methyl-pyridin-4-yl)-1H-pyrazole-3-carboxylic acid amide]"
> 70%,< 0.5 µM,"COc1ccc(OC(F)(F)F)c(-c2cc(C(=O)Nc3c(F)cccc3F)nn2C)c1 [Example 8, N-(2,6-Difluoro-phenyl)-5-[5-methoxy-2-(trifluoromethyloxy)-phenyl]-1-methyl-1H-pyrazole-3-carboxylic acid amide]"
> 70%,0.5 to 1 µM,"COc1ccc(OC)c(-c2c(C)c(C(=O)Nc3ccncc3F)nn2C)c1 [Example 25, 5-(2,5-Dimethoxyphenyl)-N-(3-fluoro-pyridin-4-yl)-1,4-dimethyl-1H-pyrazole-3-carboxylic acid amide]"
50 to 70%,1 to 5 µM,"COc1ccc(OC)c(-c2cc(C(=O)Nc3cnc(C)cc3C)nn2C)c1 [Example 17, 5-(2,5-Dimethoxyphenyl)-N-(4,6-dimethyl-pyridin-3-yl)-1-methyl-1H-pyrazole-3-carboxylic acid amide]"
> 70%,0.5 to 1 µM,"CCOc1ccc(OC)cc1-c1cc(C(=O)Nc2c(F)cccc2F)nn1C [Example 4, N-(2,6-Difluoro-phenyl)-5-(2-ethoxy-5-methoxy-phenyl)-1-methyl-1H-pyrazole-3-carboxylic acid amide]"
> 70%,< 0.5 µM,"COc1ccc(OC)c(-c2cc(C(=O)Nc3c(F)cccc3F)nn2C)c1 [Example 21, N-(2,6-Difluoro-phenyl)-5-(2,5-dimethoxyphenyl)-1-methyl-1H-pyrazole-3-carboxylic acid amide]"
> 70%,0.5 to 1 µM,"Cn1nc(C(=O)Nc2c(F)cccc2F)cc1-c1ccccc1C(F)(F)F [Example 7, N-(2,6-Difluoro-phenyl)-1-methyl-5-[2-(trifluoromethyl)-phenyl]-1H-pyrazole-3-carboxylic acid amide]"
> 70%,< 0.5 µM,"COc1ccc(OC)c(-c2cc(C(=O)Nc3c(C)cccc3F)nn2C)c1 [Example 32, 5-(2,5-Dimethoxyphenyl)-N-(2-fluoro-6-methyl-phenyl)-1-methyl-1H-pyrazole-3-carboxylic acid amide]"
< 50%,1 to 5 µM,"CCOc1ccc(OC)cc1-c1cc(C(=O)Nc2ccncc2F)nn1C [Example 3, 5-(2-Ethoxy-5-methoxy-phenyl)-N-(3-fluoro-pyridin-4-yl)-1-methyl-1H-pyrazole-3-carboxylic acid amide]"
> 70%,0.5 to 1 µM,"COc1ccc(F)cc1-c1cc(C(=O)Nc2c(F)cccc2F)nn1C [Example 10, N-(2,6-Difluoro-phenyl)-5-(5-fluoro-2-methoxy-phenyl)-1-methyl-1H-pyrazole-3-carboxylic acid amide]"
> 70%,1 to 5 µM,"Cc1ccc(Cl)cc1-c1cc(C(=O)Nc2c(F)cccc2F)nn1C [Example 26, 5-(5-Chloro-2-methyl-phenyl)-N-(2,6-difluoro-phenyl)-1-methyl-1H-pyrazole-3-carboxylic acid amide]"
50 to 70%,1 to 5 µM,"COc1ccc(OC)c(-c2c(N)c(C(=O)Nc3c(F)cccc3F)nn2C)c1 [Example 44, 4-Amino-N-(2,6-difluoro-phenyl)-5-(2,5-dimethoxyphenyl)-1-methyl-1H-pyrazole-3-carboxylic acid amide]"
> 70%,1 to 5 µM,"COc1ccc(OC)c(-c2cc(C(=O)Nc3ccccc3C)nn2C)c1 [Example 27, 5-(2,5-Dimethoxyphenyl)-1-methyl-N-(o-tolyl)-1H-pyrazole-3-carboxylic acid amide]"
> 70%,–,"Cc1cncc(F)c1NC(=O)c1cc(-c2c(F)cccc2C(F)(F)F)n(C)n1 [Example 63, N-(3-Fluoro-5-methyl-pyridin-4-yl)-5-[2-fluoro-6-(trifluoromethyl)-phenyl]-1-methyl-1H-pyrazole-3-carboxylic acid amide]"
